Usually inhibition stands for how much of the control response was suppressed. A lower inhibition goes with a weak effect. One may read the IC50 as the concentration needed to halve the response being measured.

Common to all, as to type: functional
For test [1], the target named is T1, DNA helicase IV (Escherichia coli K-12) (UniProt P15038).
T1 sequence (whole entry): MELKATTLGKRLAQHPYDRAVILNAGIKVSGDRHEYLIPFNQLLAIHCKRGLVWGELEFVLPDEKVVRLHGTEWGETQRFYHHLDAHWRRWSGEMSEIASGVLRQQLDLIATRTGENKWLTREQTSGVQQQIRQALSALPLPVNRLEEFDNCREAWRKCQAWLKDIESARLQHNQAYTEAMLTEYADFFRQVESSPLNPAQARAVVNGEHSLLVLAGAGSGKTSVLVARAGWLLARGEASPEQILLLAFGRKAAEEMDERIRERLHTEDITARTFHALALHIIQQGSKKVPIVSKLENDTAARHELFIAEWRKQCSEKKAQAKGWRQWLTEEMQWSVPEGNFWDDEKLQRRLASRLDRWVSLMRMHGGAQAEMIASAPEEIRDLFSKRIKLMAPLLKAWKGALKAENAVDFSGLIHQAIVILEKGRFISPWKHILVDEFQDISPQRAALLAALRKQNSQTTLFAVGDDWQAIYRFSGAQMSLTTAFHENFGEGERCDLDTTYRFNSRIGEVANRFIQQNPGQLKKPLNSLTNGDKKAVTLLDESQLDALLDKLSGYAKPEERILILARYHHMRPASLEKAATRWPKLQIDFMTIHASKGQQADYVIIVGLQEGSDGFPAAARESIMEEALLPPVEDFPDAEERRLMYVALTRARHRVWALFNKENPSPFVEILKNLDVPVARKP
In words: Inhibition of ATPase activity of Helicase4 from Escherichia coli at 10 uM.

For test [2], the target named is T2, DNA helicase IV (Escherichia coli K-12, UniProt P15038).
T2 sequence (P15038 whole entry): T1 sequence (whole entry)
Nature of the test: Inhibition of ATPase activity of Helicase4 from Escherichia coli in presence of ATP (5x Km(ATP)) and dT25 (5x KDNA).

Test [3] addresses T1, DNA helicase IV (Escherichia coli K-12). Nature of the test: Inhibition of helicase activity of Helicase4 from Escherichia coli at 10 uM.
Test [4] deals with DNA helicase IV (Escherichia coli K-12, UniProt P15038, Y473A). In words: Inhibition of ATPase activity of Tyr473Ala mutated Helicase4 in presence of ATP (5x Km(ATP)) and dT25 (5x KDNA).
Chain of DNA helicase IV (Escherichia coli K-12, UniProt P15038, Y473A) (P15038 whole entry Y473A): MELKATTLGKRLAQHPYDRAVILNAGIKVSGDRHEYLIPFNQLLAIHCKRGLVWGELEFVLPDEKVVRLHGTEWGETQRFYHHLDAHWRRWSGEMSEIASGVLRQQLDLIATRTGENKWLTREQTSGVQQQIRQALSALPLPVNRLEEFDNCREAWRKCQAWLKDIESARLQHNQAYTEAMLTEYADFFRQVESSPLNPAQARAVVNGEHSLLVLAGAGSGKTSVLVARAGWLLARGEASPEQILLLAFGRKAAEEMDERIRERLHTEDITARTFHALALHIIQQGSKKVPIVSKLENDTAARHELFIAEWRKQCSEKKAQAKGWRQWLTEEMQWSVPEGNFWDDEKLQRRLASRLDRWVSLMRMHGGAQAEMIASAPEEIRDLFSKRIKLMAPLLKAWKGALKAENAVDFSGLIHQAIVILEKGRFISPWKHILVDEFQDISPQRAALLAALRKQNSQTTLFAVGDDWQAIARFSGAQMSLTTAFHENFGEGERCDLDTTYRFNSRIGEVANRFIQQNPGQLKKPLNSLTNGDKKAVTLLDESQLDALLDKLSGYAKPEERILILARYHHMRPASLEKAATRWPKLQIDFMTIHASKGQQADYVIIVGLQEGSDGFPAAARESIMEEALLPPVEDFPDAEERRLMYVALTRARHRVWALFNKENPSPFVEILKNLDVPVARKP

For the compound `CC(C(=O)O)c1ccc2c(c1)C(=O)c1ccccc1CS2` (configuration not stated), the results for the inhibition in test [1] and in test [3] were 98% and 93%, respectively. In addition, on DNA helicase IV [2], the IC50 turned out to be 3 µM.

With `CCOC(=O)Cc1ccc2c(c1)C(=O)c1ccccc1CS2`, the inhibition worked out at 0% in test [1] and 5% in test [3].

Take `Cc1ccc2c(c1)CSc1ccc(CC(=O)O)cc1C2=O`: the inhibition in test [1] was determined as 78%; in test [3], 53%. The half-maximal inhibitory concentration (IC50) on DNA helicase IV [2] was determined as 7 µM.

`O=C(O)Cc1ccc2c(c1)C(=O)c1ccccc1CS2`: the values for the inhibition in test [1] and in test [3] were 93% and 79%, respectively. Also, the IC50 at DNA helicase IV [2] was determined as 5 µM; on DNA helicase IV [4], 5.5 µM.

Regarding `O=C(O)Cc1ccc2c(c1)C(=O)c1ccccc1C[S+]2[O-]` (configuration not stated), the inhibition in test [1] was found to be 2%; in test [3] it was 0%.

On to `CC(=O)Nc1ccc2c(c1)C(=O)c1cc(CC(=O)O)ccc1SC2`, for which the values for the inhibition in test [1] and in test [3] were 99% and 89%, respectively. Further, the IC50 at DNA helicase IV [2] was 1.4 µM.

The record behind these values is ChEMBL document CHEMBL1138140, “Inhibition of DNA helicases with DNA-competitive inhibitors” (Bioorg Med Chem Lett, 2006).
